Reference: PubChem BioAssay (NCI)
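How tested: cells in 96-well plates exposed to compound for 48 hours at five concentrations. GI50 is the concentration that inhibits growth by half. Definition used: TGI = concentration required for complete inhibition of growth.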

Assays:
Experiment in all cases: NCI anticancer screen, dose series, 48 h
[1] = tested on: 786-0 renal
[2] = tested on: A498 renal
[3] = tested on: A549 NSCLC
[4] = tested on: ACHN renal
[5] = tested on: BT-549 breast
[6] = tested on: CAKI-1 renal
[7] = tested on: CCRF-CEM leukemia
[8] = tested on: COLO 205 colon
[9] = tested on: DU-145 prostate
[10] = tested on: HCC-2998 colon
[11] = tested on: HCT-116 colon
[12] = tested on: HCT-15 colon
[13] = tested on: HL-60(TB) leukemia
[14] = tested on: HOP-62 NSCLC
[15] = tested on: HOP-92 NSCLC
[16] = tested on: HS 578T breast
[17] = tested on: HT29 colon
[18] = tested on: IGROV1 ovarian
[19] = tested on: K-562 leukemia
[20] = tested on: KM12 colon
[21] = tested on: LOX IMVI melanoma
[22] = tested on: M14 melanoma
[23] = tested on: MALME-3M melanoma
[24] = tested on: MCF7 breast
[25] = tested on: MDA-MB-231 breast
[26] = tested on: MDA-MB-435
[27] = tested on: MOLT-4 leukemia
[28] = tested on: NCI-H226 lung
[29] = tested on: NCI-H23 lung
[30] = tested on: NCI-H460 lung
[31] = tested on: NCI-H522 lung
[32] = tested on: NCI/ADR-RES ovarian
[33] = tested on: OVCAR-3 ovarian
[34] = tested on: OVCAR-4 ovarian
[35] = tested on: OVCAR-5 ovarian
[36] = tested on: OVCAR-8 ovarian
[37] = tested on: PC-3 prostate
[38] = tested on: RPMI-8226 leukemia
[39] = tested on: RXF 393 renal
[40] = tested on: SF-268 CNS
[41] = tested on: SF-295 CNS
[42] = tested on: SF-539 CNS
[43] = tested on: SK-MEL-28 melanoma
[44] = tested on: SK-MEL-5 melanoma
[45] = tested on: SK-OV-3 ovarian
[46] = tested on: SN12C renal
[47] = tested on: SNB-19 CNS
[48] = tested on: SNB-75 CNS
[49] = tested on: SR leukemia
[50] = tested on: SW-620 colon
[51] = tested on: T-47D breast
[52] = tested on: TK-10 renal
[53] = tested on: U251 CNS
[54] = tested on: UACC-257 melanoma
[55] = tested on: UACC-62 melanoma
[56] = tested on: UO-31 renal

For `CCCCCCC(O)(c1ccc(F)cc1)C(CN1CCOCC1)c1ccccc1` (configuration not stated), the GI50 [1] was 13.2 µM, the TGI [1] was 27.3 µM and the GI50 [2] was 11.6 µM. It also gave a TGI [2] of 30 µM, a GI50 [3] of 11.7 µM and a TGI [3] of 29.3 µM. It also gave a GI50 [4] of 12.3 µM, a TGI [4] of 24.9 µM and a GI50 [5] of 14.7 µM. For the same molecule, the TGI [5] was 29.6 µM, the GI50 [6] was 12.5 µM and the TGI [6] was 28.9 µM. The GI50 [7] was 13.9 µM, the TGI [7] was 32.9 µM and the GI50 [8] was 12.1 µM. The TGI [8] was 27 µM, the GI50 [9] was 14.6 µM and the TGI [9] was 28.7 µM. The GI50 [10] was 13.8 µM, the TGI [10] was 29.3 µM and the GI50 [11] was 8.53 µM. It also gave a TGI [11] of 24.6 µM, a GI50 [12] of 11.5 µM and a TGI [12] of 24.7 µM. It also gave a GI50 [13] of 12 µM, a TGI [13] of 31.6 µM and a GI50 [14] of 19.2 µM. For the same molecule, the TGI [14] was 35.3 µM, the GI50 [15] was 12.8 µM and the TGI [15] was 26.1 µM. It also gave a GI50 [16] of 14.8 µM, a TGI [16] of 40 µM and a GI50 [17] of 5.37 µM. For the same molecule, the TGI [17] was 19.9 µM, the GI50 [18] was 12.8 µM and the TGI [18] was 41.9 µM. For the same molecule, the GI50 [19] was 14.9 µM, the TGI [19] was 37.7 µM and the GI50 [20] was 12.4 µM. The TGI [20] was 28.4 µM, the GI50 [21] was 16.2 µM and the TGI [21] was 31.1 µM. The GI50 [22] was 16.3 µM, the TGI [22] was 34.4 µM and the GI50 [23] was 15 µM. It also gave a TGI [23] of 33.4 µM, a GI50 [24] of 11.7 µM and a TGI [24] of 24.4 µM. The GI50 [25] was 11.4 µM, the TGI [25] was 26.5 µM and the GI50 [26] was 15.8 µM. For the same molecule, the TGI [26] was 41.7 µM, the GI50 [27] was 13.3 µM and the TGI [27] was 32.4 µM. The GI50 [28] was 8.63 µM, the TGI [28] was 24.8 µM and the GI50 [29] was 11.1 µM. The TGI [29] was 30.6 µM, the GI50 [30] was 13.4 µM and the TGI [30] was 29.3 µM. The GI50 [31] was 8.14 µM, the TGI [31] was 22.3 µM and the GI50 [32] was 12.1 µM. It also gave a TGI [32] of 34.2 µM, a GI50 [33] of 12.5 µM and a TGI [33] of 25.4 µM. It also gave a GI50 [34] of 14.2 µM, a TGI [34] of 29.8 µM and a GI50 [35] of 13.8 µM. For the same molecule, the TGI [35] was 26.8 µM, the GI50 [36] was 14.2 µM and the TGI [36] was 34.8 µM. The GI50 [37] was 5.24 µM, the TGI [37] was 21.3 µM and the GI50 [38] was 5.48 µM. The TGI [38] was 21.7 µM, the GI50 [39] was 5.26 µM and the TGI [39] was 19 µM. It also gave a GI50 [40] of 13 µM, a TGI [40] of 28.4 µM and a GI50 [41] of 15.3 µM. For the same molecule, the TGI [41] was 31.5 µM, the GI50 [42] was 15.6 µM and the TGI [42] was 29.6 µM. For the same molecule, the GI50 [43] was 16.4 µM, the TGI [43] was 34.5 µM and the GI50 [44] was 4.64 µM. It also gave a TGI [44] of 18.6 µM, a GI50 [45] of 16 µM and a TGI [45] of 36.7 µM. For the same molecule, the GI50 [46] was 12.7 µM, the TGI [46] was 28.3 µM and the GI50 [47] was 12.8 µM. It also gave a TGI [47] of 27.5 µM, a GI50 [48] of 14.4 µM and a TGI [48] of 35.9 µM. The GI50 [49] was 11.9 µM, the TGI [49] was 29.8 µM and the GI50 [50] was 12.2 µM. It also gave a TGI [50] of 26.3 µM, a GI50 [51] of 10.4 µM and a TGI [51] of 23.8 µM. For the same molecule, the GI50 [52] was 18 µM, the TGI [52] was 32.8 µM and the GI50 [53] was 12.2 µM. The TGI [53] was 25.1 µM, the GI50 [54] was 10.3 µM and the TGI [54] was 27.3 µM. It also gave a GI50 [55] of 11.4 µM, a TGI [55] of 27.7 µM and a GI50 [56] of 11.6 µM. The TGI [56] was 26.4 µM.
